From patent US11932651B1, “2-benzo-[3,4-B]quinolino-[b,g]indeno[1′,2′:3,4]fluoreno-[1,2-d]oxonine-24-chloro-5,11,16,21-tetraone as an antimicrobial compound” (KING FAISAL UNIVERSITY, priority 2023, dated 2024)

What was measured:
Staphylococcus aureus = experiment: Antimicrobial screening by agar dilution, Staphylococcus aureus; assay type: cell-based; details: after 10, 20, 40 and 60 minutes at all dilutions 1:100, 1:200, 1:400, 1:800
Procedure: (§1) The antibacterial properties of the synthesized compound 2-benzo-[3,4-b]quinolino-[b,g]indeno[1′,2′:3,4]fluoreno-[1,2-d]oxonine-24-chloro-5,11,16,21-tetraone were studied by the method of agar dilution. Test solutions of each compound was prepared in concentration of 1% using dimethylformamide as a solvent then they are diluted in physiological solution to obtain the final experimental dilutions 1:100, 1:200, 1:400, 1:800. The effect of these substances are compared with furacillin in a controllable study. The testing microbes used were gram positive bacteria Staphylococcus aureus, gram negative bacteria Pseudomonas aeruginosa and Escherichia coli and Candida albicans fungus. The experiments used for this survey were meat-pentonlu agar (EPA) for cultivation of bacteria and Saburo environment for the fungus. Each experiment used 1 mL of test solution on each plate […]. Two drops of emulsified with microbes feel were added. All experimental samples were taken from the agar after 10, 20, 40, 60 minutes in the environment on the basis of Patrk planted. The bacteria were cultivated at a temperature of 37° C. for 1 day and the mushroom was kept in a thermostat for […] at a temperature of 28° C. Then results were checked.

Escherichia coli = experiment: Antimicrobial screening by agar dilution, Escherichia coli; assay type: cell-based; details: after 10, 20, 40 and 60 minutes at all dilutions 1:100, 1:200, 1:400, 1:800
Procedure: as §1

Pseudomonas aeruginosa = experiment: Antimicrobial screening by agar dilution, Pseudomonas aeruginosa; assay type: cell-based; details: after 10, 20, 40 and 60 minutes at all dilutions 1:100, 1:200, 1:400, 1:800
Procedure: as §1

Candida albicans = experiment: Antimicrobial screening by agar dilution, Candida albicans; assay type: cell-based; details: after 10, 20, 40 and 60 minutes at all dilutions 1:100, 1:200, 1:400, 1:800
Procedure: as §1

Structure (SMILES): O=C1Oc2nc3ccc(Cl)cc3cc2-c2c(c3c4ccccc4c(=O)c3c3c2c(=O)c2ccccc23)C(=O)c2ccccc21 [2-benzo-[3,4-b]quinolino-[b,g]indeno[1′,2′:3,4]fluoreno-[1,2-d]oxonine-24-chloro-5,11,16,21-tetraone]
- inhibition activity, Staphylococcus aureus (Staphylococcus aureus): highest inhibition activity
- melting point: 241 °C
- inhibition activity, Escherichia coli (Escherichia coli): highest inhibition activity
- inhibition activity, Pseudomonas aeruginosa (Pseudomonas aeruginosa): highest inhibition activity
- inhibition activity, Candida albicans (Candida albicans): highest inhibition activity
